Key:
[1] = Color fastness to washing (Example 1): evaluation of rinsing waters; parameters: species or system human; conditions: 5 g of 2% water solution, 10 minutes at room temperature; rinsed 5 times with Sodium Laureth-2 Sulfate solution pH 7.5; FIG. 1; six swatches incl. non-treated
Experimental: The coloring formulation was applied in a quantity sufficient to color all the fibers of the swatches, then wrapped in an aluminum foil and left on for 35 minutes.
Afterwards, the swatches were rinsed with Davines SOLU shampoo of the Essential Hair Care line, directly on the previously wet swatches and rinsed for 30 seconds in order to remove the mixture.
Then, swatches are treated as follows:
5 g of 2% liposol maleate (Sabinsa Corporation) water solution,
5 g of 2% Olaplex® Bond Multiplier No 1 water solution.
A non-treated swatch is used as reference.
The specific treatments are left on hair fora period of 10 minutes at room temperature.
After 10 minutes, the swatches are rinsed 5 times with a Sodium Laureth-2 Sulfate (Zetesol Les 2/SL®) solution to pH 7.5. The rinsing procedure consists on providing 1.5 g of the surfactant solution per swatch, putting it on the swatch, and massaging for 10 seconds, then rinsing.
The rinsing treatment is carried out dipping the individual swatch for 10 times in a beaker containing 100 g water, in order to collect the rinsing water.

[2] = Protection of hair from bleaching treatment (Example 4), sensorial analysis; conditions: 3.5 g of a 12% water solution added to bleaching powder + Activator 40 vol. mixture; 30 minutes, treatment done twice
Experimental: The following specific compositions were separately added to the mixture:
a) 3.5 g of a 12% Liposol maleate (Sabinsa Corporation) water solution;
b) 3.5 g of a 12% On Protection (7% Liposol maleate and 13% maleic) water solution;
e) 3.5 g of a 12% Olaplex® Bond Multiplier No 1 water solution;
The swatches were left on for 30 minutes at room temperature wrapped in an aluminum foil.
After that, the swatches were rinsed using cold running water and carefully washed using Davines SOLU shampoo of the Essential Hair Care line.
After the left on period, the swatches were rinsed using cold running water for removing the mixture and further treated with Davines SOLU shampoo of the Essential Hair Care line.
Then, 2.5 g of the conditioner MOMO of the Essential Hair Care line are applied; left on for one minute and subsequently rinsed using cold running water.
Finally, the swatches were towel dried, dried with an airdryer and combed using a fine-tooth comb.

[3] = Hair resistance to bleaching treatment (Example 5), tensile strength test; conditions: 9 g (maleic acid, liposol maleate: 20% water solution) added to 20 g bleaching powder + 40 g Activator 40 vol.; 50 minutes; On Protection = 13% maleic acid and 7% Liposol maleate; five measurements, 6 cm hair, 0.5 mm/sec
Experimental: Five swatches of hair, weight and length standard, level 5, are treated with the coloration Davines Mask With Vibrachrom 4.0 mixed with the activator Davines Activator 20 vol., emulsion containing hydrogen peroxide, in a ratio of 1:1.5 as disclosed in the Davines manual and left on at room temperature for 35 minutes in a ratio of 1:1.5 as disclosed in the Davines manual.
During the left on period, the swatches were wrapped up in tinfoil and left at room temperature. After that, the swatches were rinsed with abundant running water and then washed with the Essential Hair Care SOLU shampoo of Davines line, washed and carefully dried with an airdryer.
At the end of the coloring process, the bleaching treatment starts.
Every swatch is decolored with 20 g of the bleaching powder Davines Mask Hair Bleaching Powder mixed with 40 g Davines Activator 40 vol.
Before application on the swatches, the mixtures are singularly added with the following solutions:
9 g Liposol maleate (Sabinsa Corporation)—20% water solution,
9 g Olaplex® Bond Multiplier No 1,
During the bleaching process, all the swatches are wrapped up in tinfoil, and left on for 50 minutes at room temperature.
After the left on period, the swatches are shampooed using Davines Hair Care DEDE shampoo and combed using a large-tooth comb.
A tensile strength test was carried out on all single swatches. […]

[4] = Hair fastness and easy bleaching (Example 7), tensile strength test; parameters: species or system human; conditions: 120 minutes
Experimental: Four swatches of human hair, weight and length level 5, are used.
The swatches are bleached using a mixture of 20 g Davines Mask Hair Bleaching Powder and 40 g Davines Activator 20 vol. to which the following compounds are added:
b) 3.5 g 12% Liposol maleate (Sabinsa Corp.) in water,
c) 3.5 g 12% Olaplex® Bond Multiplier No 1 in water,
During the bleaching process, all the swatches are wrapped up in aluminum foil, and afterward they are left on for 120 minutes at room temperature.
After the left on period, every swatch is rinsed with abundant running water and washed with a Sodium Lauth-2 sulfate (Zetesol Les 2/SL®) 15% water solution and to a pH 7.5, and dried by combing with a large-tooth comb.
The swatches are subsequently washed until a complete removal of the product.
The Tensile Strength Test was made with a dynamometer Texture Analysis Plus (Extended Height) using pneumatic clamps.
The tensile strength of hair treated with different compositions was compared with the tensile strength of the non-bleached virgin swatch (positive reference) and the tensile strength of the swatch treated only with Davines Mask Hair Bleaching Powder without a protective agent (negative reference). Five measurements for each single 6 cm long hair, and at constant rate of 0.5 mm/sec., were made.

[5] = Reducing treatment: curl resistance to repeated washings (Example 8); conditions: 1.8 ml added to 100 ml Balance Curling System #1 and to 100 ml Bouclè neutralizer (maleic acid, liposol maleate as 20% solution); 40 washings with 15% Sodium laureth-2 sulfate pH 7.5
Experimental: 1) 100 ml Davines Balance Curling System #1,
3) 100 ml Davines Balance Curling System #1 added with 1.8 ml of a Liposol maleate 20% solution (Sabinsa Corporation),
(§1) 4) 100 ml Davines Balance Curling System #1 added with 1.8 ml of Olaplex® Bond Multiplier No 1,
The above described reducing formulations (2 ml per hair swatch) were applied and left on for 30 minutes.
After the left on period, the swatches were washed with hot running water for one minute and left 10 minutes towel dried on air without any treatment, in order to stabilize the treatment.
Five neutralizing solutions are prepared:
1) 100 ml neutralizing solution Davines Bouclè Biowaving System Extra Delicate Neutralizer hydrogen peroxide 2.1%,
3) 100 ml neutralizing solution Davines Bouclè Biowaving System Extra Delicate Neutralizer added with 1.8 ml of Liposol Maleate 20% water solution (Sabinsa Corporation),
4) 100 ml neutralizing solution Davines Bouclè Biowaving System Extra Delicate Neutralizer added with 1.8 ml Olaplex® Bond Multiplier No 1,
Every swatch is left on for 10 minutes at room temperature.
Directly on the swatches and without rinsing, the neutralizing treatment is repeated in the same way, leaving on for other 10 minutes, for total 20 minutes.
After the left on period, the formulation in excess is rinsed with running water and the curlers are dried with a drier for 30 minutes. […]

[6] = Reducing treatment: hair conditioning (Example 9), evaluation by skilled technicians; parameters: species or system human; conditions: 5 g of 2% water solution (On Protection: 10% in method, 2% in results), 2 x 7.30 minutes after reducing treatment; 5 washings
Experimental: The coloring formulation was applied mixed with Davines Activator 20 vol., hydrogen peroxide emulsion, according to the Davines operating manual, in a 1:1.5 ratio.
The color was carefully applied in a quantity sufficient to color all the fibers of the swatches, then left on for 35 minutes at room temperature.
After that, the swatches were carefully rinsed with SOLU shampoo of the Essential Hair Care Davines line, in order to eliminate the excess color.
5 grams per swatch of the reducing formulation Davines Balance Curling System #1 are applied on the wet and towel dried swatches, and left on for 30 minutes.
After the left on period, the swatches are washed with water and ready to be treated with:
1) 5 g of maleic 2% water solution,
2) 5 g Liposol Maleate (Sabinsa Corporation) 2% water solution,
3) 5 g Olaplex® Bond Multiplier No 1, 2% water solution,
All the swatches are left on at room temperature for 7.30 minutes.
This treatment is repeated without rinsing, directly on the swatches, for 7.30 minutes (overall 15 minutes).
After the left on time, the swatches are rinsed with running water to eliminate the excess product.
(§2) Then, the swatches are carefully washed with a Sodium Laureth-2 sulfate (Zetesol Les 2/SL®) 15% and to a pH of 7.5. […]

[7] = Sensory properties of hair treated with a reducing treatment after coloring (Example 10); conditions: 5 g of 2% water solution, 2 x 7.30 minutes after bleaching, coloring and reducing treatment; washed with Sodium Laureth-2 sulfate 15% pH 7.5
Experimental: Four swatches of level 7 natural hair, standard weight and width, are bleached two times using the Davines Mask Hair Bleaching Powder mixed with an activator, hydrogen peroxide emulsion, Davines Activator 40 vol. in a 1:2 ratio.
The above described mixture is applied on single swatches in order to obtain a homogenous distribution of the product on the hair fibers.
The swatches are covered with an aluminum foil and left on for 50 minutes at room temperature. At the end of the left on period, the swatches are rinsed and carefully washed with a shampoo of the Davines Essential Hair Care SOLU line and dried. The entire process is repeated two times until to obtain the lightening level 11 according to Davines Color Manual.
The swatches as above treated are colored with Davines Mask with Vibrachrom 10.01 mixed with Davines Activator 20 vol. in a ratio 1:1.5 as disclosed in the Davines manual.
The coloration was applied to every swatch in an amount to obtain an homogeneous distribution of the product on all the hair fibers of the single swatch.
At the end of the coloration step, after rinsing with shampoo SOLU of the Essential Hair Care line of Davines and drying, the swatches are treated with 5 g of the Davines reducing formulation called Balance Curling System #1 and left on for 30 minutes at room temperature.
Then, the swatches are rinsed with water and treated as follows: […]

[8] = Color retention after reducing treatment (Example 11), evaluation by skilled technicians; parameters: species or system human; conditions: added to reducing composition and to neutralizing solution (1.8 ml per 100 ml) and applied afterwards as solution in 45 ml water, 7.5 minutes
Experimental: Five hair samples from a human subject having a standard weight and a width and level 7 are colored with a Davines Mask with Vibrachrom 3.51. The coloring formulation was applied mixed with Davines Activator 20 vol., hydrogen peroxide emulsion, according to Davines operating manual, in a 1:1.5 ratios. The color was carefully applied in a quantity sufficient to give a homogeneous color to all fibers of the swatches. The mixture was left on for 35 minutes at room temperature.
After that, the swatches were carefully rinsed with shampoo Davines SOLU of the Essential Hair Care line, in order to eliminate the excess color.
After the left on period, the swatches were treated with the following reducing compositions:
1) 100 ml Davines Balance Curling System #1
as §1
On the wet and towel dried swatches, 5 grams of the above described reducing formulations are applied per swatch, and then left on for 30 minutes.
After the left on period, the swatches are washed with hot running water for 1 minute and left 10 minutes towel dried on air without any treatment, in order to stabilize the treatment.
Five neutralizing solutions are prepared: […]
The swatches were evaluated from skilled technicians as follows:

[9] = Hair resistance to reducing treatment (Example 12), tensile strength test
Experimental: Five level 5 natural hair swatches, weight and width standard, are washed with Essential Hair Care SOLU shampoo.
Then, the swatches are towel dried with adsorbing paper for removing excess water and subsequently enrolled on 1 cm diameter curlers.
2 ml of Davines Balance Curling System #1 perm are applied on all the curlers using a spout dispenser and left on for 30 minutes.
After that, every curler is rinsed with abundant water for 1 minute using cold running water.
Then, the swatches are neutralized using different neutralizing solutions:
2.5 g Davines Bouclè Biowaving System Extra Delicate Neutralizer (hydrogen peroxide 2.1%),
2.5 g liposol maleate (Sabinsa Corp.) 2% water solution,
2.5 g Olaplex® Bond Multiplier No 1, 10% water solution,
The swatches are left on for 7.30 minutes at room temperature.
Without rinsing, directly on the swatches, the application of the neutralizing solutions is repeated according to the same procedure for other 7.30 minutes, totally 15 minutes.
After the left on period, the excess product is rinsed with cold running water and the curlers are dried in an oven ISCO at 53° C.±1 for 4 hours.
The swatches are removed from the curlers and the curl sinuosity is evaluated using a camera.
as §2
Then, the tensile strength was evaluated. […]

Water solubility = format: physicochemical

| Structure (SMILES) | limpidity / color intensity of the rinsing water (ranking) [1] | silkiness, smoothness and compactness of the swatches (sensorial analysis, ranking) [2] | Tensile Strength N [3] [N] | Tensile Strength N ([4]; 3.5 g 12% in water added to 20 g bleaching powder + 40 g Activator 20 vol., On Protection = 12% Liposol maleate + 8% maleic acid, five measurements, 6 cm hair, 0.5 mm/sec) [N] | resistance to hair breakage in comparison to other treatments (in words) ([4]; 3.5 g 12% in water added to bleaching mixture) | maintenance of the deviousness of the curls after repeated washings (ranking by skilled personnel) [5] | softness and silkiness (ranking by skilled technicians) [6] | chromatic differences / color retention [7] | color retention after the reducing treatment (evaluated by skilled technicians) [8] | Tensile Strength N ([9]; 2.5 g as neutralizing solution after perm (maleic acid, liposol maleate 2%; Olaplex, On Protection 12% liposol maleate/8% maleic acid 10% water solution), 2 x 7.30 minutes, 40 washings) [N] | protection of the swatches (conclusion in words) ([9]; in comparison with Olaplex® Bond Multiplier No 1 and Davines Bouclè Biowaving System Extra Delicate Neutralizer) | solubility in water (Water solubility) |
| --- | --- | --- | --- | --- | --- | --- | --- | --- | --- | --- | --- | --- |
| CN(C)CCNC(=O)CCCCC1CCSS1.O=C(O)/C=C\C(=O)O (stereo not drawn) [Liposol maleate, 1,2-dithioane-3-pentanamide, N-(2-dimethylamino) ethyl salified with a mole of maleic acid] | third | better in relation to compactness, silkiness and smoothness | 0.98 ± 0.11 | 1.06 ± 0.13 | clearly show an improvement | maintain the deviousness of the curls in a lower degree | regard as preferred | do not present significant chromatic differences | more intensive and vibrating | 1.04 ± 0.16 | more protected |  |
| O=C(O)/C=C\C(=O)O [maleic acid, cis-butendioic acid] |  |  |  |  |  |  |  |  |  |  |  | water soluble |
